Results: publication PMC7794297
Read-outs that look alike come from different tables or passages of the source.

What was measured:
glucose oxidase (GOx) [1] = molecular target: T1, glucose oxidase (GOx) (Aspergillus niger, UniProt P13006); assay: GOx-DCL in presence of DTNB; design: purchased Sigma Aldrich; settings: large excess of DTNB
Method: The equilibration of the DCL was completed after 24 h (Fig. 9) and the oligomers were identified by HPLC-MS (Supplementary Figs. 4–20). The precise composition of the DCL (with and without GOx), was assessed by measuring the relative peak area (RPA). The normalized change of RPA was used to quantify the protein influence in the final DCL showing the amplification of the dimer of compound 4, that is (4)2 (Fig. 9b). Control experiments were set up to verify that the amplification of the dimer was not due to unspecific binding. Firstly the GOx was replaced by the bovine serum albumin (BSA). A stability study of BSA under the DCL conditions was performed using a fluorescence technique confirming the BSA stability in the DCL experiment (Supplementary Fig. 48)[50].
% v/v DMSO (266 µL). The DCL was stabilized for 24 hours at 6 °C. Then, BS A was removed by ultracentrifugation thr ough an Amicon ultra -filter (10 KDa) and the solution was analyzed by […]
GOx-DCL in presence of DTNB.
GOx- directed DCL: Dithiols 1-2 […]
To elucídate the type of inhibitor, Lineweaver-Burk plot were performed. GOx activity was measured at increasing concentration s of glucose (0.2 mM to 4 mM) and in presence and absence of (4)2 and DTNB. According to fluorescence s tudies and their Kd’ values, the concentration of the inhibitors were chosen. […]
IC50 was determined using different concentrations of inhibitors DTNB and (4)2. […]

glucose oxidase (GOx) [2] = molecular target: T1, glucose oxidase (GOx); assay: Tryptophan fluorescence emission binding experiments with GOx; design: purchased Sigma Aldrich; settings: for Kd: GOx 0.8 µM, Tris pH 7.8, 5% DMSO, 10 °C
glucose oxidase (GOx) [3] = molecular target: T1, glucose oxidase (GOx); assay: GOx activity assay, glucose oxidase-horseradish peroxidase coupled system with o-dianisidine; type: biochemical; design: purchased Sigma Aldrich; settings: for 1/Vo: Lineweaver-Burk;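 as to GOx activity: GOx activity followed by o-dianisidine absorbance at 500 nm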
apo and holo GOx = molecular target: apo and holo GOx; design: method as in PMID 10491329; settings: apo and holo GOx forms; cited from earlier work
[4] = [DTNB] 8 uM, Supplementary Figure 52 c
[5] = [DTNB] 40 uM, Supplementary Figure 52 c
[6] = [DTNB] 80 uM, Supplementary Figure 52 c
[7] = [DTNB] 200 uM, Supplementary Figure 52 c
[8] = [DTNB] 400 uM, Supplementary Figure 52 c
[9] = [Glucose] 1.6 μM, Supplementary Figure 52 a
[10] = [Glucose] 32 μM, Supplementary Figure 52 a
[11] = [Glucose] 48 μM, Supplementary Figure 52 a
[12] = [Glucose] 400 μM, Supplementary Figure 52 a
[13] = [Glucose] 800 μM, Supplementary Figure 52 a
[14] = [Glucose] 2000 μM, Supplementary Figure 52 a
[15] = [Glucose] 4000 μM, Supplementary Figure 52 a
[16] = [Glucose] 8000 μM, Supplementary Figure 52 a
[17] = [Glucose] 12000 μM, Supplementary Figure 52 a
[18] = [Glucose] 20000 μM, Supplementary Figure 52 a

T1 sequence (P13006 17-605): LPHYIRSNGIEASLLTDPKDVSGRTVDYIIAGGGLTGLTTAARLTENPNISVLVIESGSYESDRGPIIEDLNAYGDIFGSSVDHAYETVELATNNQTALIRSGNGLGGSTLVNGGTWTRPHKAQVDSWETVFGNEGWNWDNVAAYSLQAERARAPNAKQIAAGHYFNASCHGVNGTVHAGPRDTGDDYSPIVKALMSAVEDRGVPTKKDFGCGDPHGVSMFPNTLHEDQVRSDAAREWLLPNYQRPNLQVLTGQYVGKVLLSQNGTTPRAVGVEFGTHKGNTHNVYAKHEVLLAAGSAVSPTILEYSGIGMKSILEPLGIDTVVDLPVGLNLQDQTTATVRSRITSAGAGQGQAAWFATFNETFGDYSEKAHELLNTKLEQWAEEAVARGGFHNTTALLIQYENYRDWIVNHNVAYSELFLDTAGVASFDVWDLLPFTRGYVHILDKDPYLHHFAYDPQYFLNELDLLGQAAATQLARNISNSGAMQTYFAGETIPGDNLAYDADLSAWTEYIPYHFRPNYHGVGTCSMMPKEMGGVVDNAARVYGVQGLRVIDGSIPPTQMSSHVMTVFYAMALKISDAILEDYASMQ

O=C(O)c1cc(SSc2ccc([N+](=O)[O-])c(C(=O)O)c2)ccc1[N+](=O)[O-] [DTNB, 5,5′-dithiobis-2-nitrobenzoic acid, reference compound]
effect on GOx-directed DCL (glucose oxidase (GOx) [1]): prevented the amplification of any other ligands except DTNB | Emission Average (glucose oxidase (GOx) [2]; [4]): 1800741 | Normalized Fluorescence (glucose oxidase (GOx) [2]; [4]): 0.1466 | Emission Average (glucose oxidase (GOx) [2]; [5]): 955958 | Normalized Fluorescence (glucose oxidase (GOx) [2]; [5]): 0.5470 | Emission Average (glucose oxidase (GOx) [2]; [6]): 361199 | Normalized Fluorescence (glucose oxidase (GOx) [2]; [6]): 0.8288 | Emission Average (glucose oxidase (GOx) [2]; [7]): 25171.8 | Normalized Fluorescence (glucose oxidase (GOx) [2]; [7]): 0.9881 | Emission Average (glucose oxidase (GOx) [2]; [8]): 521.51 | Normalized Fluorescence (glucose oxidase (GOx) [2]; [8]): 0.9998 | Kd (glucose oxidase (GOx) [2]; apparent dissociation constant, read-out: Kd'): 64 ± 2 µM | GOx Activity (glucose oxidase (GOx) [3]; IC50 data, inhibitor 1.4 nM, glucose 10 mM): 0.0674 min⁻¹ | GOx Activity (glucose oxidase (GOx) [3]; IC50 data, inhibitor 3.5 nM, glucose 10 mM): 0.0701 min⁻¹ | GOx Activity (glucose oxidase (GOx) [3]; IC50 data, inhibitor 7.0 nM, glucose 10 mM): 0.063 min⁻¹ | GOx Activity (glucose oxidase (GOx) [3]; IC50 data, inhibitor 14.0 nM, glucose 10 mM): 0.0639 min⁻¹ | GOx Activity (glucose oxidase (GOx) [3]; IC50 data, inhibitor 70.0 nM, glucose 10 mM): 0.0603 min⁻¹ | GOx Activity (glucose oxidase (GOx) [3]; IC50 data, inhibitor 140.0 nM, glucose 10 mM): 0.0454 min⁻¹ | GOx Activity (glucose oxidase (GOx) [3]; IC50 data, inhibitor 700.0 nM, glucose 10 mM): 0.0399 min⁻¹ | GOx Activity (glucose oxidase (GOx) [3]; IC50 data, inhibitor 1400.0 nM, glucose 10 mM): 0.0322 min⁻¹ | GOx Activity (glucose oxidase (GOx) [3]; IC50 data, inhibitor 1428571.0 nM, glucose 10 mM): 0.0388 min⁻¹ | GOx Activity (glucose oxidase (GOx) [3]; Ki data, inhibitor 3,5·10^-8 M, [Glucose] 0.0002 M): 0.0024 min⁻¹ | GOx Activity (glucose oxidase (GOx) [3]; Ki data, inhibitor 3,5·10^-8 M, [Glucose] 0.0007 M): 0.0073 min⁻¹ | GOx Activity (glucose oxidase (GOx) [3]; Ki data, inhibitor 3,5·10^-8 M, [Glucose] 0.0014 M): 0.013 min⁻¹ | GOx Activity (glucose oxidase (GOx) [3]; Ki data, inhibitor 3,5·10^-8 M, [Glucose] 0.0028 M): 0.0254 min⁻¹ | GOx Activity (glucose oxidase (GOx) [3]; Ki data, inhibitor 3,5·10^-8 M, [Glucose] 0.004 M): 0.0298 min⁻¹ | GOx Activity (glucose oxidase (GOx) [3]; Ki data, inhibitor 7·10^-8 M, [Glucose] 0.0002 M): 0.0022 min⁻¹ | GOx Activity (glucose oxidase (GOx) [3]; Ki data, inhibitor 7·10^-8 M, [Glucose] 0.0007 M): 0.0054 min⁻¹ | GOx Activity (glucose oxidase (GOx) [3]; Ki data, inhibitor 7·10^-8 M, [Glucose] 0.0014 M): 0.0121 min⁻¹ | GOx Activity (glucose oxidase (GOx) [3]; Ki data, inhibitor 7·10^-8 M, [Glucose] 0.0028 M): 0.0197 min⁻¹ | GOx Activity (glucose oxidase (GOx) [3]; Ki data, inhibitor 7·10^-8 M, [Glucose] 0.004 M): 0.0279 min⁻¹ | GOx Activity (glucose oxidase (GOx) [3]; Ki data, inhibitor 14·10^-8 M, [Glucose] 0.0002 M): 0.0008 min⁻¹ | GOx Activity (glucose oxidase (GOx) [3]; Ki data, inhibitor 14·10^-8 M, [Glucose] 0.0007 M): 0.004 min⁻¹ | GOx Activity (glucose oxidase (GOx) [3]; Ki data, inhibitor 14·10^-8 M, [Glucose] 0.0014 M): 0.0074 min⁻¹ | GOx Activity (glucose oxidase (GOx) [3]; Ki data, inhibitor 14·10^-8 M, [Glucose] 0.0028 M): 0.015 min⁻¹ | GOx Activity (glucose oxidase (GOx) [3]; Ki data, inhibitor 14·10^-8 M, [Glucose] 0.004 M): 0.0236 min⁻¹ | 1/Vo (glucose oxidase (GOx) [3]; inhibitor 0,07 µM, 1/[glucose] 250 M-1): 32.9749 min | 1/Vo (glucose oxidase (GOx) [3]; inhibitor 0,07 µM, 1/[glucose] 357 M-1): 56.0355 min | 1/Vo (glucose oxidase (GOx) [3]; inhibitor 0,07 µM, 1/[glucose] 714 M-1): 65.6495 min | 1/Vo (glucose oxidase (GOx) [3]; inhibitor 0,07 µM, 1/[glucose] 1430 M-1): 135.55 min | 1/Vo (glucose oxidase (GOx) [3]; inhibitor 0,07 µM, 1/[glucose] 5000 M-1): 532.407 min | 1/Vo (glucose oxidase (GOx) [3]; inhibitor 0,14 µM, 1/[glucose] 250 M-1): 37.1744 min | 1/Vo (glucose oxidase (GOx) [3]; inhibitor 0,14 µM, 1/[glucose] 357 M-1): 57.2815 min | 1/Vo (glucose oxidase (GOx) [3]; inhibitor 0,14 µM, 1/[glucose] 714 M-1): 76.102 min | 1/Vo (glucose oxidase (GOx) [3]; inhibitor 0,14 µM, 1/[glucose] 1430 M-1): 148 min | 1/Vo (glucose oxidase (GOx) [3]; inhibitor 0,14 µM, 1/[glucose] 5000 M-1): 505.051 min | Inhibitor Type (glucose oxidase (GOx) [3]; Lineweaver–Burk plots): non-competitive | Ki (glucose oxidase (GOx) [3]; non-competitive inhibition model, 37 °C, sodium acetate buffer pH 5.1): 0.2 ± 0.02 µM

OC[C@H]1O[C@@H](O)[C@H](O)[C@@H](O)[C@@H]1O [β-D-glucose]
Kd (apo and holo GOx): ~10000 µM | Kd (glucose oxidase (GOx) [2]; read-out: apparent dissociation constant): 1100 ± 20 µM | Emmsion average (glucose oxidase (GOx) [2]; [9]): 4205310 | Normalized Fluorescence (glucose oxidase (GOx) [2]; [9]): 0.03401 | Emmsion average (glucose oxidase (GOx) [2]; [10]): 4080311 | Normalized Fluorescence (glucose oxidase (GOx) [2]; [10]): 0.00328 | Emmsion average (glucose oxidase (GOx) [2]; [11]): 4060405 | Normalized Fluorescence (glucose oxidase (GOx) [2]; [11]): -0.00162 | Emmsion average (glucose oxidase (GOx) [2]; [12]): 4998302 | Normalized Fluorescence (glucose oxidase (GOx) [2]; [12]): 0.229 | Emmsion average (glucose oxidase (GOx) [2]; [13]): 5886318 | Normalized Fluorescence (glucose oxidase (GOx) [2]; [13]): 0.4473 | Emmsion average (glucose oxidase (GOx) [2]; [14]): 6538644 | Normalized Fluorescence (glucose oxidase (GOx) [2]; [14]): 0.6077 | Emmsion average (glucose oxidase (GOx) [2]; [15]): 6499875 | Normalized Fluorescence (glucose oxidase (GOx) [2]; [15]): 0.5982 | Emmsion average (glucose oxidase (GOx) [2]; [16]): 5944287 | Normalized Fluorescence (glucose oxidase (GOx) [2]; [16]): 0.4616 | Emmsion average (glucose oxidase (GOx) [2]; [17]): 7469372 | Normalized Fluorescence (glucose oxidase (GOx) [2]; [17]): 0.8366 | Emmsion average (glucose oxidase (GOx) [2]; [18]): 7323012 | Normalized Fluorescence (glucose oxidase (GOx) [2]; [18]): 0.8006
